Here are results for five compounds from article PMC3853768 (Molecular Pain, 2013).

In data set [1] the test system is CFA-injected mice (C57 Bl6). The following applies: mouse, in vivo.
For data set [2], the system named is L-type. It is filed as cell-based, mouse.
Data set [3] has as its system P/Q-type channels (Cav2.1). In kind it is cell-based, mouse.
The test system of data set [4] is N-type calcium channels with auxiliary subunits. The conditions noted are these: cited from earlier work.
Data set [5] relates to patients. The following applies: in vivo; cited from earlier work.

“And” between values parts separate entries of the source, which are not always exact repeats. Equal entries are not always repeated. “Also recorded” adds a separate entry of the source. Positions of bridges follow the written chain, without caps; N, C: chain ends. Residues, ends and D or L forms follow the SMILES beside them.

In the case of `C[C@@H]1NC(=O)CNC(=O)[C@H](CCCCN)NC(=O)CNC(=O)[C@H](CCCCN)NC(=O)[C@@H](N)CSSC[C@@H]2NC(=O)[C@@H]3CSSC[C@@H](C(N)=O)NC(=O)[C@H](CCCNC(=N)N)NC(=O)CNC(=O)[C@H](CO)NC(=O)[C@H](CCCNC(=N)N)NC(=O)[C@H](CSSC[C@H](NC(=O)[C@H](CO)NC1=O)C(=O)N[C@@H](CCCNC(=N)N)C(=O)N[C@@H](CCCNC(=N)N)C(=O)N[C@@H]([C@@H](C)O)C(=O)N[C@@H](CO)C(=O)N[C@@H](Cc1ccc(O)cc1)C(=O)N[C@@H](CC(=O)O)C(=O)N3)NC(=O)[C@H](CO)NC(=O)CNC(=O)[C@H]([C@@H](C)O)NC2=O` [CVIE], the “reversal of CFA-induced incapacitance (impaired weight bearing)” value (shortened to “reversal of CFA-induced incapacitance”) in data set [1] is “partially reversed impaired weight bearing; also recorded: most effective at reversing mechanical alldoynia; also recorded: significant reversal of incapacitance; also recorded: most effective at reversal of pain; also recorded: reverse signs of inflammatory pain”.

In the case of `COCCOC(=O)C1=C(C)NC(C)=C(C(=O)OC(C)C)C1c1cccc([N+](=O)[O-])c1` (centres unmarked) [nimodipine], the “inhibition of total ICa (L-type contribution)” value in data set [2] was 5% and 4%.

Regarding ω-agatoxin IVA, the “inhibition of total ICa (P/Q-type contribution)” value in data set [3] is given as “approximately 30%”.

As for `CSCC[C@@H]1NC(=O)[C@H](CC(C)C)NC(=O)[C@H](CCCCN)NC(=O)[C@H](CO)NC(=O)[C@@H]2CSSC[C@@H]3NC(=O)[C@H](CO)NC(=O)CNC(=O)[C@H](CO)NC(=O)[C@H](CSSC[C@H](N)C(=O)N[C@@H](CCCCN)C(=O)N[C@@H](CO)C(=O)N[C@@H](CCCCN)C(=O)NCC(=O)N[C@@H](C)C(=O)N[C@@H](CCCCN)C(=O)N2)NC(=O)[C@H](CSSC[C@@H](C(N)=O)NC(=O)[C@H](CCCNC(=N)N)NC(=O)CNC(=O)[C@H](C(C)C)NC(=O)[C@H]([C@@H](C)O)NC(=O)CNC(=O)[C@H](CO)NC3=O)NC(=O)[C@H](CC(=O)O)NC(=O)[C@H](Cc2ccc(O)cc2)NC1=O` [CVID] (H-CKSKGAKCSKLMYDCCSGSCSGTVGRC-NH2; disulfide 1-16, 8-20, 15-27), in data set [4], the “affinity for N-type calcium channels in presence of α2δ subunits” value was “significantly reduces the affinity” and the “recovery from block in presence of α2δ subunits” value is reported as “decreasing recovery from CVID block”. In addition, the “side-effect profile of irreversible ω-conotoxins” value in data set [5] is on record as “high side-effect profile”. Also, in data set [1], the “reversal of CFA-induced incapacitance” value is on record as “partially reversed impaired weight bearing; also recorded: most effective at reversing mechanical alldoynia; also recorded: most effective at reversal of pain; also recorded: reverse signs of inflammatory pain”.

Turning to `CC(C)C[C@@H]1NC(=O)[C@H](CCCNC(=N)N)NC(=O)[C@@H]2CSSC[C@@H]3NC(=O)[C@H](CO)NC(=O)[C@H](C)NC(=O)CNC(=O)[C@H](CCCCN)NC(=O)CNC(=O)[C@H](CCCCN)NC(=O)[C@@H](N)CSSC[C@H](NC(=O)[C@H](CSSC[C@@H](C(N)=O)NC(=O)[C@H](CCCNC(=N)N)NC(=O)CNC1=O)NC(=O)[C@H](CC(=O)O)NC(=O)[C@H](Cc1ccc(O)cc1)NC(=O)[C@H](CO)NC(=O)[C@H]([C@@H](C)O)NC(=O)[C@H](CCCNC(=N)N)NC(=O)[C@H](CCCNC(=N)N)NC3=O)C(=O)N[C@@H]([C@@H](C)O)C(=O)NCC(=O)N[C@@H](CO)C(=O)N2` [CVIF] (H-CKGKGASCRRTSYDCCTGSCRLGRC-NH2; disulfide 1-16, 8-20, 15-25), the “reversal of CFA-induced incapacitance” value in data set [1] was “did not produce significant reversal of incapacitance”.
